Source: US20220017877A1, “BILIRUBIN OXIDASE ACTIVITY IMPROVING METHOD, AND BILIRUBIN OXIDASE PRODUCT” (OZEKI CORPORATION, priority 2018, published 2022)
Counter-ions that a name gives are not always drawn.

Key:
[1] = target: T1, recombinant BOD (bilirubin oxidase) derived from Myrothecium verrucaria MT-1 (Albifimbria verrucaria, UniProt Q12737); assay: BOD activity after leaving the BOD solution with an activity improving agent or comparative substance at 30° C. in a deoxygenated atmosphere (Test Example 1); format: biochemical; conditions: for Activity (%) Day 47: left 47 days at 30° C.; for Activity (%) Day 47 / Activity (%) Day 14: relative to Day 0, additive concentration as in Table 1; for Activity (%) Day 0: 30° C., additive concentration as in Table 1; for Activity (%) Day 14: left 14 days at 30° C.
T1 construct: made in house; host or cells: Aspergillus sp
T1 sequence (Q12737 39-572): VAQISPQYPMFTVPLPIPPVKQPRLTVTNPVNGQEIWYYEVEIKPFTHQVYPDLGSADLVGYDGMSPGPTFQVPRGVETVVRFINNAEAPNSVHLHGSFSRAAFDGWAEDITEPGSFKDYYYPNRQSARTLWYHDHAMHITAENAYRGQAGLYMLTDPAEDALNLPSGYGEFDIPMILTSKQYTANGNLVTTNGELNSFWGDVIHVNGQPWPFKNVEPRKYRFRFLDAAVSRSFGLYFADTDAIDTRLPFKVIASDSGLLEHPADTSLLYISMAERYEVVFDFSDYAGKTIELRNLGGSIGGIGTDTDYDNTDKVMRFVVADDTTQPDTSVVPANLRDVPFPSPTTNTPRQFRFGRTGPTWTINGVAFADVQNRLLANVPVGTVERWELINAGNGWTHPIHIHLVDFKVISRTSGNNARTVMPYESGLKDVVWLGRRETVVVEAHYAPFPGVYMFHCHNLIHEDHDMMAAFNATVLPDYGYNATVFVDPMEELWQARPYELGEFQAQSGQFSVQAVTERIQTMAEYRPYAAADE
Experimental: A BOD solution, which contains: a BOD; and the present activity improving agent or a comparative substance, was left in an environment at a temperature of 30° C. in a deoxygenated atmosphere for a certain period of time. After the BOD solution was left as above, improvement of the BOD activity by the present activity improving method was evaluated by measurement of the BOD activity.
In Test Example 1, a BOD gene derived from a Myrothecium verrucaria MT-1 (GenBank accession number: D12579.1) was introduced into an Aspergillus sp., and then a recombinant BOD (hereinafter, also referred to simply as “BOD”) expressed in the Aspergillus sp. was purified by using a well-known technique and then used as the BOD. The BOD gene derived from the Myrothecium verrucaria MT-1 was codon-optimized in accordance with a gene sequence of the Aspergillus sp., and then introduced into the Aspergillus sp. Further, the BOD thus purified was dissolved in a 50 mM glycine-KOH (pH 8.5) buffer so that the concentration of the BOD became 1.0 mg/mL. Then, a resultant solution was used as a BOD enzyme solution.
The enzymatic activity of the BOD was measured as follows. To 1780 μL of a 50 mM potassium phosphate buffer (pH 6.5), 200 μL of a 20 mM ABTS substrate solution was added, so that a mixed solution (1980 μL) was prepared. This mixed solution was incubated for 1 min at 37° C. Thereafter, 20 μL of a solution containing the BOD (specifically, a BOD solution for evaluation, which will be described later) was added to the mixed solution, and a resultant mixed solution (2 mL) was incubated at 37° C. While the mixed solution was incubated, the absorbance of the mixed solution at a wavelength of 436 nm was measured immediately after that addition of the BOD solution for evaluation (at 0 seconds) and thereafter every 20 seconds. On the basis of (i) the absorbance of the mixed solution at a wavelength of 436 nm immediately after the addition of the BOD solution for evaluation and (ii) the absorbance of the mixed solution at a wavelength of 436 nm after a lapse of 1 minute from the addition of the BOD solution for evaluation, calculation was carried out for obtaining an increase rate per minute of the absorbance of the mixed solution at a wavelength of 436 nm after the addition of the BOD solution for evaluation. The BOD activity (unit) in the BOD solution for evaluation was calculated from the increase rate. In the present specification, the amount of enzyme for oxidizing 1 μmol of ABTS per minute was defined as one unit.
A specific test method of Test Example 1 is as follows. To a BOD enzyme solution containing a BOD, one of the above-described present activity improving agents was added, so that a BOD solution (which is the BOD solution according to an embodiment of the present invention) was prepared. Further, one of the above-described comparative substances was added to the BOD enzyme solution, so that another BOD solution was prepared. In addition, still another BOD solution was prepared by adding, to the BOD enzyme solution, distilled water in place of the activity improving agent or the comparative substance, so that a control (denoted as Without additive in Tables 1 to 3) was prepared. The final concentration of the activity improving agent or the comparative substance in each of the above BOD solutions was shown in “mM” or “percentage (%)” (amount (g) of the activity improving agent or the comparative substance relative to 100 mL of the BOD solution) in Table 1.
Thereafter, one of these BOD solutions and a deoxygenating agent (Anaero Pack manufactured by Mitsubishi Gas Chemical Company, Inc.) were included in one container. Then, the container was sealed, so that a BOD container was prepared. The BOD container was left in an environment at a temperature of 30° C. in a deoxygenated atmosphere for 47 days (Table 2) or 14 days (Table 3). […]

[2] = ABTS initial absorbance (A436) reduction rate (Test Example 3); format: physicochemical; conditions: for A436 reduction rate (%): in one minute at 25° C., 1 mM (single compound) or 0.011 g nitrogen element in 100 mL (composition), pH 8.5; for change of ABTS initial absorbance: reaction solution A, FIG. 2
Description: In the present specification, the absorbance of a solution containing ABTS (ABTS solution), at a wavelength of 436 nm, is defined as an ABTS initial absorbance (A436). In the present specification, the ABTS initial absorbance (A436) reduction rate (%) of the activity improving agent is defined to be a reduction rate (%) of the absorbance of a mixed solution, which contains the above ABTS solution and the above activity improving agent, at a wavelength of 436 nm in one minute, with respect to the ABTS initial absorbance (A436) (100%). Note that the ABTS solution is a solution in which the concentration of ABTS is adjusted such that the absorbance (A436) at a wavelength of 436 nm is approximately 1.3 at an optical path length of 1.0 cm. The value “approximately 1.3” here is intended to mean a value in a range in which 1.3 is obtained by rounding the value to the first decimal place. Test Examples described later will explain specific methods for measuring the absorbance (A436) of the ABTS solution at a wavelength of 436 nm and the ABTS initial absorbance (A436) reduction rate (%) of the activity improving agent. ABTS is an abbreviation for 2,2′-azinobis(3-ethylbenzothiazoline-6-sulfonic acid).
In the present activity improving method, when the ABTS initial absorbance (A436) reduction rate (%) of the activity improving agent is measured, the concentration of the activity improving agent in the ABTS solution for measurement is set as follows: (a) the concentration is set to 1 mM, when the molecular weight of the activity improving agent is evident as in a case where the activity improving agent is made of a single compound; and (b) when the activity improving agent is a substance which is made of a composition having an inevident molecular weight, the content of nitrogen element is used as a reference and the concentration is set such that the content of nitrogen element derived from the activity improving agent is 0.011 g in 100 mL of the ABTS solution for measurement. Note that, in the above (b), the content of nitrogen element derived from the activity improving agent in the ABTS solution is a value calculated by the Kjeldahl method.
The following describes a specific evaluation method. ABTS employed was an ABTS manufactured by Roche Diagnostics K.K. Further, the ABTS was dissolved in a 50 mM glycine-KOH (pH 8.5) buffer so that the concentration of the ABTS became 2.0 mg/mL. An ABTS solution was thus prepared. The absorbance of the ABTS solution at a wavelength of 436 nm (ABTS initial absorbance (A436)) was measured at an optical path length of 1.0 cm, by using a molecular absorption spectrometer Spectra Max Plus 384 (manufactured by Molecular Devices Japan K.K.). As a result the absorbance was approximately 1.3. Next, 5 μL of an activity improving agent solution or a comparative substance solution was added to 195 μL of the ABTS solution, so that a reaction solution for evaluating ABTS (hereinafter, also referred to as “reaction solution A”) was prepared. […]

[3] = Day 0 (start of leaving, set to 100%)
[4] = Day 0 (start of leaving, set to 100%) of the 14-day test

| Compound | Activity (%) Day 47 [1] [%] | A436 reduction rate (%) [2] [%] | Activity (%) Day 0 [1, 3] [%] | Activity (%) Day 14 [1] [%] | Activity (%) Day 0 [1, 4] [%] | change of ABTS initial absorbance [2] |
| --- | --- | --- | --- | --- | --- | --- |
| Cc1c(C)c2c(c(C)c1O)CCC(C)(C(=O)O)O2 (stereo not shown) [Trolox] | 251 | 83.90 |  |  |  |  |
| O=C(CS)OCC(O)CO (stereo not shown) [GMT, glyceryl monothioglycolate, reference compound] | 1 | 87.81 |  |  |  |  |
| CC(=O)N[C@@H](CS)C(=O)O [N-acetyl-L-cysteine] | 122 | 87.81 |  |  |  |  |
| N.O=C(O)CS [Ammonium thioglycolate, ammonium thioglycolate, reference compound] | 0 | 87.81 | 100 |  |  |  |
| O=CC(=O)O [Glyoxylic acid, glyoxylic acid] |  | 0.33 |  | 194 |  |  |
| N[C@@H](CCC(=O)N[C@@H](CS)C(=O)NCC(=O)O)C(=O)O [Glutathione (reduced form), glutathione (reduced form)] | 113 | 87.81 | 100 |  |  |  |
| O[C@H](CS)[C@H](O)CS (racemic) [DTT, dithiothreitol, reference compound] | 0 | 87.81 |  |  |  |  |
| NCCS [Cysteamine hydrochloride, cysteamine hydrochloride, reference compound] | 1 | 87.81 |  |  |  |  |
| Cl.N[C@@H](CS)C(=O)O [L-cysteine hydrochloride] | 130 | 87.81 |  |  |  |  |
| N.N.O=S(=O)(O)O [Ammonium sulfate, ammonium sulfate, reference compound] |  | 0.00 |  | 65 | 100 | does not change |
| NC(N)=O [Urea, urea, reference compound] |  | 0.00 |  | 56 | 100 | does not change |
| O=S([O-])[O-].[Na+].[Na+] [Sodium sulfite, sodium sulfite] | 162 | 87.81 | 100 |  |  |  |
